# Source: patent publication US8604029B2, “2-[(2-substituted)-indolizin-3-yl]-2-oxo-acetamide derivatives as antifungal agents” (F2G Ltd British Body Corporate, priority 2006, dated 2013)
# System: Aspergillus fumigatus
# Experiment: MIC measurement, YAG medium
# Format: cell-based
# Settings: Aspergillus fumigatus; YAG medium; MIC banded into grades; strain AF293; read-out: MIC A. fumigatus
# Protocol: Between 1 and 5 mgs of compound were accurately weighed out into a sterile Eppendorf tube. The compound was dissolved in DMSO to give a solution containing […]. Tubes were stored at −20° C. until required.
# On the day of testing thawed solutions were vortex mixed to ensure homogeneity. 30 μL of solution was removed and added to 570 μL of sterile water in a separate sterile Eppendorf. The thoroughly mixed solution was used to prepare a series of doubling dilutions in water, in a deep well plate. Thirteen replicate plates were prepared using a Minitrak by aspirating 20 μL from each well into eleven clear polystyrene 96 well plates.
# Spores of Aspergillus spp. (Aspergillus fumigatus [two strains], Aspergillus terreus [two strains], Aspergillus niger and Aspergillus flavus) were harvested from cultures grown on Sabarauds agar for 5 days, and resuspended in PBS/Tween 80 to approx 1×10^7 cfu/mL. Other filamentous fungi (Absidia corymbifera, Fusarium solani, Rhizomucor, Scedosporium spp., Trichophyton spp.), were grown on Sabarauds agar for 2-10 days and spores/hyphae resuspended in PBS/Tween to give approx 1×10^7 cfu/mL. Candida species (Candida albicans, Candida glabrata, Candida krusei, Candida parapsilosis and Candida tropicalis) were grown on Sabarauds agar, cells were harvested from the agar using a sterile loop and resuspended in PBS/Tween 80 to approx 1×10^6 cfu/mL. Each organism suspension was diluted in RPMI medium, containing 2% glucose and 0.135 M MOPS buffer (pH 7.0) to 0.5-2×10^4 cfu/mL for Aspergillus spp. and other filamentous fungi and 0.5-2×10^3 cfu/mL for yeast. 80 μL of an organism suspension was added to each well of the plate containing drug dilutions.
# This produced MIC plates with a drug range 50-0.05 mg/L and organism inocula of 1-2×10^4 cfu/mL for Aspergillus spp. and other filamentous fungi and 1-2×10^3 cfu/mL for yeasts. All plates were incubated for 24-48 hrs at 35° C. Growth was assessed by monitoring the optical density at 485 nm for each well. The MIC of a compound is the lowest drug concentration that inhibits growth of an organism by >80% compared with a drug free control. MICs are recorded as mg/L. Other growth media can be used for susceptibility testing, and the activity of the described compounds can also be assessed in a medium comprising 1% glucose, 1% ammonium chloride and 0.5% yeast extract (YAG medium). To perform MIC tests in this medium, dilutions of compounds are prepared in microtitre plates as described above. Fungal strains to be tested are grown and harvested in an identical manner to that described above, each organism suspension is then diluted in YAG medium to 0.5-2×10^4 cfu/mL for Aspergillus spp. and other filamentous fungi and 0.5-2×10^3 cfu/mL for yeast. 80 μL of an organism suspension was added to each well of the plate containing drug dilutions. This produced MIC plates with a drug range 50-0.05 mg/L and organism inocula of 1-2×10^4 cfu/mL for Aspergillus spp. and other filamentous fungi and 1-2×10^3 cfu/mL for yeasts. All plates were incubated for 24 hrs at 35° C. Growth was assessed by monitoring the optical density at 485 nm for each well. The MIC of a compound is the lowest drug concentration that inhibits growth of an organism by >70% compared with a drug free control. MICs are recorded as mg/L. In cases where the MIC of an organism is […] mg/L the MIC is repeated using a concentration range of 0.5-0.0005 mg/L. MIC tests in YAG medium have more clear-cut endpoints and have slightly lower MICs than those performed in RPMI medium.
# The following organisms were tested: Absidia corymbifera, Aspergillus flavus, Aspergillus fumigatus AF293 and AF210, Aspergillus niger, Aspergillus terreus AT4 and AT49, Candida albicans, Candida glabrata, Candida krusei, Candida parapsilosis, Candida tropicalis, Fusarium solani, Rhizomucor sp., Scedosporium apiospermum, Scedosporium prolificans, Trichophyton mentagrophytes, and Trichophyton rubrum.
row,SMILES,MIC
1,"Cc1cc(C)nc(N2CCN(c3ccc(NC(=O)C(=O)c4c(-c5ccccc5)cc5ccccn45)cc3)CC2)n1 [Example 44, N-{4-[4-(4,6-Dimethyl-pyrimidin-2-yl)-piperazin-1-yl]-phenyl}-2-oxo-2-(2-phenyl-indolizin-3-yl)-acetamide]",< 1 mg/L
2,"C=C1CCN(c2ccc(NC(=O)C(=O)c3c(-c4cccnc4C)cc4ccccn34)cc2)CC1 [Example 46, N-[4-(4-Methylene-piperidin-1-yl)-phenyl]-2-[2-(2-methyl-pyridin-3-yl)-indolizin-3-yl]-2-oxo-acetamide]",< 1 mg/L
3,"Cc1cc(C)nc(N2CCN(c3ccc(NC(=O)C(=O)c4c(C5CCCC5)cc5ccccn45)cc3)CC2)c1 [Example 47, 2-(2-Cyclopentyl-indolizin-3-yl)-N-{4-[4-(4,6-dimethyl-pyridin-2-yl)-piperazin-1-yl]-phenyl}-2-oxo-acetamide]",< 1 mg/L
4,"Cc1cc(C)nc(N2CCN(c3cccc(NC(=O)C(=O)c4c(-c5ccccc5)cc5ccccn45)c3)CC2)c1 [Example 48, N-{3-[4-(4,6-Dimethyl-pyridin-2-yl)-piperazin-1-yl]-phenyl}-2-oxo-2-(2-phenyl-indolizin-3-yl)-acetamide]",< 1 mg/L
5,"Cc1ccnc(N2CCN(c3ccc(NC(=O)C(=O)c4c(-c5ccccc5)cc5ccccn45)cc3)CC2)c1 [Example 49, N-{4-[4-(4-Methyl-pyridin-2-yl)-piperazin-1-yl]-phenyl}-2-oxo-2-(2-phenyl-indolizin-3-yl)-acetamide]",< 1 mg/L
6,"CC(C)(C)CN1CCN(c2ccc(NC(=O)C(=O)c3c(-c4ccccc4)cc4ccccn34)nc2)CC1 [Example 50, N-{5-[4-(2,2-Dimethyl-propyl)-piperazin-1-yl]-pyridin-2-yl}-2-oxo-2-(2-phenyl-indolizin-3-yl)-acetamide]",< 1 mg/L
7,"O=C(Nc1ccc(N2CCN(S(=O)(=O)c3cccnc3)CC2)cc1)C(=O)c1c(-c2ccccc2)cc2ccccn12 [Example 51, 2-Oxo-2-(2-phenyl-indolizin-3-yl)-N-{4-[4-(pyridine-3-sulfonyl)-piperazin-1-yl]-phenyl}-acetamide]",< 1 mg/L
8,"Cc1cc(N2CCN(c3ccc(NC(=O)C(=O)c4c(-c5ccccc5)cc5ccccn45)cc3)CC2)cc(C)n1 [Example 52, N-{4-[4-(2,6-Dimethyl-pyridin-4-yl)-piperazin-1-yl]-phenyl}-2-oxo-2-(2-phenyl-indolizin-3-yl)-acetamide]",> 10 mg/L
9,"Cc1cc(C)nc(N2CCCN(c3ccc(NC(=O)C(=O)c4c(-c5ccccc5)cc5ccccn45)cc3)CC2)c1 [Example 54, N-{4-[4-(4,6-Dimethyl-pyridin-2-yl)-[1,4]diazepan-1-yl]-phenyl}-2-oxo-2-(2-phenyl-indolizin-3-yl)-acetamide]",< 1 mg/L
10,"Cc1cc(C)nc(N(C)CCN(C)c2ccc(NC(=O)C(=O)c3c(-c4ccccc4)cc4ccccn34)cc2)c1 [Example 55, N-[4-({2-[(4,6-Dimethyl-pyridin-2-yl)-methyl-amino]-ethyl}-methyl-amino)-phenyl]-2-oxo-2-(2-phenyl-indolizin-3-yl)-acetamide]",< 1 mg/L
11,"O=C(Nc1ccc(N2CCN(c3ccc(CN4CCOCC4)cc3)CC2)cc1)C(=O)c1c(-c2ccccc2)cc2ccccn12 [Example 56, N-{4-[4-(4-Morpholin-4-ylmethyl-phenyl)-piperazin-1-yl]-phenyl}-2-oxo-2-(2-phenyl-indolizin-3-yl)-acetamide]",< 1 mg/L
12,"COCCOc1cc(C)nc(N2CCN(c3ccc(NC(=O)C(=O)c4c(-c5ccccc5)cc5ccccn45)cc3)CC2)c1 [Example 57, N-(4-{4-[4-(2-Methoxy-ethoxy)-6-methyl-pyridin-2-yl]-piperazin-1-yl}-phenyl)-2-oxo-2-(2-phenyl-indolizin-3-yl)-acetamide]",< 1 mg/L
13,"Cc1cc(C)nc(N2CCN(c3ccc(NC(=O)C(=O)c4c(C5CC5)cc5ccccn45)cc3)CC2)c1 [Example 58, 2-(2-Cyclopropyl-indolizin-3-yl)-N-{4-[4-(4,6-dimethyl-pyridin-2-yl)-piperazin-1-yl]-phenyl}-2-oxo-acetamide]",< 1 mg/L
14,"O=C(Nc1ccc(N2CCN(c3cccnc3)CC2)cc1)C(=O)c1c(-c2ccccc2)cc2ccccn12 [Example 59, 2-Oxo-2-(2-phenyl-indolizin-3-yl)-N-[4-(4-pyridin-3-yl-piperazin-1-yl)-phenyl]-acetamide]",< 1 mg/L
15,"Cc1cc(C)nc(N2CCN(c3ccc(NC(=O)C(=O)c4c(C5CCCCC5)cc5ccccn45)cc3)CC2)c1 [Example 60, 2-(2-Cyclohexyl-indolizin-3-yl)-N-{4-[4-(4,6-dimethyl-pyridin-2-yl)-piperazin-1-yl]-phenyl}-2-oxo-acetamide]",< 1 mg/L
16,"Cc1cc(C)nc(N2CCN(c3ccc(NC(=O)C(=O)c4c(C(C)C)cc5ccccn45)cc3)CC2)c1 [Example 61, N-{4-[4-(4,6-Dimethyl-pyridin-2-yl)-piperazin-1-yl]-phenyl}-2-(2-isopropyl-indolizin-3-yl)-2-oxo-acetamide]",< 1 mg/L
17,"Cc1cc(C)nc(N2CCN(c3ccc(NC(=O)C(=O)c4c(C(C)(C)C)cc5ccccn45)cc3)CC2)c1 [Example 62, 2-(2-tert-Butyl-indolizin-3-yl)-N-{4-[4-(4,6-dimethyl-pyridin-2-yl)-piperazin-1-yl]-phenyl}-2-oxo-acetamide]",> 10 mg/L
18,"Cc1cc(C)nc(N2CCN(c3ccc(NC(=O)C(=O)c4c(C5CCN(C)CC5)cc5ccccn45)cc3)CC2)c1 [Example 63, N-{4-[4-(4,6-Dimethyl-pyridin-2-yl)-piperazin-1-yl]-phenyl}-2-[2-(1-methyl-piperidin-4-yl)-indolizin-3-yl]-2-oxo-acetamide]",> 10 mg/L
19,"Cc1cc(C)nc(N(C)CCOc2ccc(NC(=O)C(=O)c3c(-c4ccccc4)cc4ccccn34)cc2)c1 [Example 64, N-(4-{2-[(4,6-Dimethyl-pyridin-2-yl)-methyl-amino]-ethoxy}-phenyl)-2-oxo-2-(2-phenyl-indolizin-3-yl)-acetamide]",< 1 mg/L
20,"Cc1cc(C)nc(OCCOc2ccc(NC(=O)C(=O)c3c(-c4ccccc4)cc4ccccn34)cc2)c1 [Example 65, N-{4-[2-(4,6-Dimethyl-pyridin-2-yloxy)-ethoxy]-phenyl}-2-oxo-2-(2-phenyl-indolizin-3-yl)-acetamide]",< 1 mg/L
21,"Cc1cc(C)nc(N2CCN(c3ccc(NC(=O)C(=O)c4c(C5CCOCC5)cc5ccccn45)cc3)CC2)c1 [Example 66, N-{4-[4-(4,6-Dimethyl-pyridin-2-yl)-piperazin-1-yl]-phenyl}-2-oxo-2-[2-(tetrahydro-pyran-4-yl)-indolizin-3-yl]-acetamide]",< 1 mg/L
22,"Cc1cc(C)nc(N(C)CCCN(C)c2ccc(NC(=O)C(=O)c3c(-c4ccccc4)cc4ccccn34)cc2)c1 [Example 67, N-[4-({3-[(4,6-dimethyl-pyridin-2-yl)-methyl-amino]-propyl}-methyl-amino)-phenyl]-2-oxo-2-(2-phenyl-indolizin-3-yl)-acetamide]",< 1 mg/L
23,"COCCN(C)c1ccc(N2CCN(c3ccc(NC(=O)C(=O)c4c(-c5ccccc5)cc5ccccn45)cc3)CC2)cn1 [Example 68, N-[4-(4-{6-[(2-Methoxy-ethyl)-methyl-amino]-pyridin-3-yl}-piperazin-1-yl)-phenyl]-2-oxo-2-(2-phenyl-indolizin-3-yl)-acetamide]",< 1 mg/L
24,"Cc1cc(C)nc(NCCN(C)c2ccc(NC(=O)C(=O)c3c(-c4ccccc4)cc4ccccn34)cc2)c1 [Example 69, N-(4-{[2-(4,6-dimethyl-pyridin-2-ylamino)-ethyl]-methyl-amino}-phenyl)-2-oxo-2-(2-phenyl-indolizin-3-yl)-acetamide]",< 1 mg/L
